Measured values: US20230212510A1, “METHODS FOR ORGANOIDS PRODUCTION” (CITY OF HOPE, priority 2020, published 2023)
Entries after “also recorded” stand apart in the source; their conditions may differ. Read-outs that look alike come from different tables or passages of the source.

Columns and labels:
Format in all cases: cell-based, human
[1] = test system: HMEC organoids in microcontainers; assay: Inhibitor treatment of contractile mammary organoids, contractions counted by time-lapse microscopy; settings: for effect on contractions (FIG. 5H legend): 2 μM
Experimental: Contraction temporal analysis: Organoid contractions were quantified either by hand or by brightness change analysis, as indicated. For brightness change analysis, time-lapse movies were taken, and the time-derivative of the whole-field image brightness was calculated. Local maxima in the time-derivative were interpreted as contractions and spot-checked by eye.
Contractile function implies the presence of contractility-associated structural proteins. […] The association between contractility and ASMA expression was tested with inhibitor experiments. Contractile organoids were treated with either latrunculin B or jasplakinolide, inhibitors of cytoskeleton dynamics that either promote or inhibit actin polymerization, […]. […] Next, organoids were treated with ML-7, an inhibitor of the smooth muscle myosin light-chain kinase that interacts with ASMA.

estrogen receptor = assay: Attempted induction of estrogen receptor expression, immunofluorescence; settings: 25 μM RepSox and 10 μM SB431542 together; drugs maintained, withdrawn, or cells mixed 1:10 with undrugged cells
[2] = test system: HMEC organoids in microcontainers; assay: Interventions to alter organoid contraction kinetics (withdrawing media factors, adding matrix)
[3] = test system: HMEC organoids in microcontainers; assay: Prolactin treatment of organoids, luminal functional differentiation (morphology, Sudan Black)

Molecule: O=S(=O)(c1cccc2c(I)cccc12)N1CCCNCC1 [ML-7]
- inhibition of contractions ([1]; 2 μM ML-7, FIG. 5I): Partial inhibition
- effect on contractions (FIG. 5I legend) ([1]; n=59 organoids): prevented contractions

Molecule: Cc1cccc(-c2[nH]ncc2-c2ccc3ncccc3n2)n1 [RepSox]
- estrogen receptor expression by immunofluorescence (estrogen receptor): not detected

Molecule: NC(=O)c1ccc(-c2nc(-c3ccc4c(c3)OCO4)c(-c3ccccn3)[nH]2)cc1 [SB431542]
- estrogen receptor expression by immunofluorescence (estrogen receptor): not detected

Molecule: CC(C)NCC(O)c1ccc(O)c(O)c1 (stereo not drawn) [isoproterenol]
- effect on contraction kinetics ([2]; withdrawn from the media): no effect

Molecule: C/C1=C\[C@H](C)C[C@H](C)OC(=O)C[C@H](c2ccc(O)cc2)NC(=O)[C@@H](Cc2c(Br)[nH]c3ccccc23)N(C)C(=O)[C@H](C)NC(=O)[C@@H](C)C1 [jasplakinolide, Jasplakinolide]
- effect on contractions (FIG. 5H legend) [1]: prevented contractions

Molecule: C/C1=C/C(=O)O[C@@H]2C[C@@H](CC[C@H](C)/C=C\CC1)O[C@@](O)([C@@H]1CSC(=O)N1)C2 [latrunculin B, Latrunculin B]
- effect on contractions (FIG. 5H legend) [1]: prevented contractions

Molecule: CC[C@H](C)[C@@H]1NC(=O)[C@H](Cc2ccc(O)cc2)NC(=O)[C@@H](N)CSSC[C@@H](C(=O)N2CCC[C@H]2C(=O)N[C@@H](CC(C)C)C(=O)NCC(N)=O)NC(=O)[C@H](CC(N)=O)NC(=O)[C@H](CCC(N)=O)NC1=O [oxytocin]
- effect on contraction kinetics ([2]; withdrawn from the media): no effect

Molecule: cholera toxin
- effect on contraction kinetics [2]: no effect

Molecule: collagen I: matrix protein added to change the microenvironment
- effect on contraction kinetics ([2]; added at 0 to 2 mg/mL): no effect

B1: prolactin: hormone treatment tested for evidence of lactation (protein, UniProt P01236 29-227, looked up)
Prolactin: LPICPGGAARCQVTLRDLFDRAVVLSHYIHNLSSEMFSEFDKRYTHGRGFITKAINSCHTSSLATPEDKEQAQQMNQKDFLSLIVSILRSWNEPLYHLVTEVRGMQEAPEAILSKAVEIEEQTKRLLEGMELIVSQVHPETKENEIYPVWSGLPSLQMADEESRLSAYYNLLHCLRRDSHKIDNYLKLLKCRIIHNNNC
- organoid morphology with prolactin treatment ([3]; presence or absence of prolactin, FIG. 6A): no obvious differences; also recorded: no morphological changes
- sudanophilia (Sudan Black, marker of lipophilic secretions) ([3]; prolactin treatment, FIG. 6B): only evident in a single organoid
